Data from patent US9540299B2, “MTOR-independent activator of TFEB for autophagy enhancement and uses thereof” (Hong Kong Baptist University, priority 2015, dated 2017).

Test system: N2a cells
Assay: LC3-II levels by western blot in N2a cells (autophagy induction)
Assay type: cell-based, mouse
Conditions: for LC3-II levels in the presence of chloroquine compared with CQ treatment alone / LC3-II levels compared to the vehicle control: 12 h; for LC3-II levels in the presence of chloroquine compared with CQ treatment alone / LC3-II levels compared to the vehicle control / LC3-II levels in cells depleted of Atg5 by siRNA: analogs 1 μM; for LC3-II levels in the presence of chloroquine compared with CQ treatment alone: CQ 20 μM; for LC3-II levels compared to the vehicle control / LC3-II levels in cells depleted of Atg5 by siRNA: curcumin 10 μM; for LC3-II levels compared to the vehicle control: vs 0.1% DMSO; for LC3-II levels in cells depleted of Atg5 by siRNA: siAtg5 72 h then compound 12 h
Protocol: N2a cells were treated with curcumin (Cur, 10 μM) and its analogs (1 μM) for 12 h (FIG. 2A). N2a cells were treated with Cur (10 μM), analogs A2, B3 and C1 (1 μM) with or without chloroquine (CQ, 20 μM) for 12 h (FIG. 2B). N2a cells were transfected with non-target siRNA (siNT) or Atg5 siRNA (siAtg5, 50 nM) for 72 h and then treated with Cur (10 μM) and analogs A2, B3 and C1 (1 μM) for 12 h (FIG. 2C). The expression of LC3-II is determined by western blot. Relative intensity is normalized to that of ACTB/β-actin. Data are presented as the mean±SD from three independent experiments. *p<0.05 vs. the control (0.1% DMSO); #p<0.05 vs. CQ treatment alone. N. S.=not significant.
N2a cells are treated with curcumin E series analogs (1 μM) for 12 hours. The expression of LC3-II is shown in Western blot (FIG. 13A). LC3-II relative intensity is normalized to that of ACTB/β-actin. Quantification data (FIG. 13B) are presented as the mean±SD from three independent experiments. *p<0.05 vs. the control (0.1% DMSO).
N2a cells are treated with E2, E3 and E4 (1 μM) in the presence or absence of chloroquine (CQ, 20 μM) for 12 hours. The expression of LC3-II is shown in Western blot (FIG. 14A). LC3-II relative intensity is normalized to that of ACTB/β-actin. Quantification data (FIG. 14B) are presented as the mean±SD from three independent experiments. *p<0.05 vs. the control (0.1% DMSO); ^#p<0.05 vs. CQ treatment alone.
N2a cells are treated with E4 for 12 hours. The expression of LC3-II is determined by Western blotting (FIG. 20A). LC3-II relative intensity is normalized to that of ACTB/β-actin. Quantification data (FIG. 20B) are presented as the mean±SD from three independent experiments. *p<0.05, **p<0.01 vs. the control (0.1% DMSO).
N2a cells are transfected with non-target siRNA (Si-NT) and TFEB siRNA. The levels of TFEB is examined by Western blotting (FIG. 27A) analysis and quantified (FIG. 27B). The effects of knock-down the expression of TFEB on the expression of LC3-II levels induced by E4 (1 μM) is also examined by Western blotting (FIG. 27C). Quantification data are presented as the mean±SD from three independent experiments (FIG. 27D). *p<0.05 vs. the control (0.1% DMSO), # p<0.05 vs. CQ alone.
N2a, Hela and Hela cells stably expressing 3×-Flag-TFEB are cultured in DMEM supplemented with 10% FBS. SH-SY5Y cells are cultured in DMEM/F12 supplemented with 10% FBS. For drug treatment, the full medium is replaced by fresh Opti-MEM I and then the compounds (in 0.1% DMSO) are added to the cells and incubated for 12 h. Inducible PC12 cells overexpressing SNCA (WT and A53T) (a kind gift from Prof. David C. Rubinsztein at Cambridge University) are grown in DMEM supplemented with 10% horse serum, 5% FBS, 50 μg/ml G418, and 150 μg/ml hygromycin B at 37° C., 10% CO2. Cells are treated with 2 μg/ml doxycycline (Dox) for 24 h to induce SNCA expression. The full medium is changed to Opti-MEM I containing the testing compounds for another 48 h.
Mouse Atg5 siRNA (25 nM) or human TFEB (100 nM) siRNA and the non-target siRNAs are transfected with Lipofectamine RNAiMAX (13778030, Invitrogen) and incubated at 37° C. for 72 h.
Cells are lysed on ice in 1× Lysis Buffer (9803, Life Technologies) with complete protease inhibitor mixture (04693124001, Roche Applied Science). Animal tissues are homogenized in nine volumes of ice-cold PBS supplemented with protease inhibitors. Cytosolic and nuclear fractions are isolated using protocols similar to those described previously. Anti-Flag or TFEB antibody is added to the whole cell lysates and Dynabeads® Protein G (10003D, Life Technologies) is used for immunoprecipitation. Proteins are separated by 10-15% SDS-PAGE, transferred, and blotted with the antibodies described. The blots are then incubated with secondary antibodies or the Clean-Blot IP Detection Reagent (21230, Thermo Scientific) at room temperature for 1 h. The protein signals are detected by ECL kit (32106, Pierce) and quantified using ImageJ software. […]

| Compound | LC3-II levels in the presence of chloroquine compared with CQ treatment alone | LC3-II levels compared to the vehicle control | LC3-II levels in cells depleted of Atg5 by siRNA | expression of LC3-II, dose-dependent (0-1 μM, 12 hours, dose-dependent manner) | autophagy-enhancing effect, comparison among E series compounds tested (1 μM, 12 hours) | LC3-II levels compared with the control in cells transfected with non-target siRNA (Si-NT, 1 μM) | induced autophagy (LC3-II levels) after knock-down of TFEB (TFEB siRNA, 1 μM) | LC3-II levels plus CQ compared with CQ treatment alone in cells transfected with non-target siRNA (Si-NT, with CQ) |
| --- | --- | --- | --- | --- | --- | --- | --- | --- |
| O=C(/C=C/c1ccccc1Br)/C=C/c1ccccc1Br [E3] | further increase | significantly increase | – | – | – | – | – | – |
| O=C(/C=C/c1cccc(C(F)(F)F)c1)/C=C/c1cccc(C(F)(F)F)c1 [A2, 1,5-bis(3-(trifluoromethyl)phenyl)penta-1,4-dien-3-one] | further increase | significantly increase | failed to increase | – | – | – | – | – |
| O=C(/C=C/c1ccccc1I)/C=C/c1ccccc1I [E4] | further increase | significantly increase | – | significantly increase | best autophagy-enhancing effect | significantly increases | attenuated | – |
| O=C(/C=C/c1ccc(O)cc1)/C=C/c1ccc(O)cc1 [B3, 1,5-bis(4-hydroxyphenyl)penta-1,4-dien-3-one] | further increase | significantly increase | failed to increase | – | – | – | – | – |
| O=C(/C=C/c1ccccc1Cl)/C=C/c1ccccc1Cl [E2] | further increase | significantly increase | – | – | – | – | – | – |
| COc1cc(/C=C/C(=O)CC(=O)/C=C/c2ccc(O)c(OC)c2)ccc1O [curcumin, Curcumin, reference compound] | – | significantly increase | failed to increase | – | – | – | – | – |
| COc1ccccc1/C=C/C(=O)/C=C/c1ccccc1OC [C1, 1,5-bis(2-methoxyphenyl)penta-1,4-dien-3-one] | further increase | significantly increase | failed to increase | – | – | – | – | further increased |
